From patent US20160159814A1, “GLYCINE TRANSPORTER INHIBITOR” (TAISHO PHARMACEUTICAL CO., LTD., priority 2013, published 2016)

Target: T1, human type 1 glycine transporter (GlyT1) (Homo sapiens, UniProt P48067)
T1 construct: T98G cells (glioma cells) expressing human type 1 glycine transporter (GlyT1) were used; endogenous in cells; host or cells: T98G cells (human glioma cells)
T1 sequence (P48067 1-706): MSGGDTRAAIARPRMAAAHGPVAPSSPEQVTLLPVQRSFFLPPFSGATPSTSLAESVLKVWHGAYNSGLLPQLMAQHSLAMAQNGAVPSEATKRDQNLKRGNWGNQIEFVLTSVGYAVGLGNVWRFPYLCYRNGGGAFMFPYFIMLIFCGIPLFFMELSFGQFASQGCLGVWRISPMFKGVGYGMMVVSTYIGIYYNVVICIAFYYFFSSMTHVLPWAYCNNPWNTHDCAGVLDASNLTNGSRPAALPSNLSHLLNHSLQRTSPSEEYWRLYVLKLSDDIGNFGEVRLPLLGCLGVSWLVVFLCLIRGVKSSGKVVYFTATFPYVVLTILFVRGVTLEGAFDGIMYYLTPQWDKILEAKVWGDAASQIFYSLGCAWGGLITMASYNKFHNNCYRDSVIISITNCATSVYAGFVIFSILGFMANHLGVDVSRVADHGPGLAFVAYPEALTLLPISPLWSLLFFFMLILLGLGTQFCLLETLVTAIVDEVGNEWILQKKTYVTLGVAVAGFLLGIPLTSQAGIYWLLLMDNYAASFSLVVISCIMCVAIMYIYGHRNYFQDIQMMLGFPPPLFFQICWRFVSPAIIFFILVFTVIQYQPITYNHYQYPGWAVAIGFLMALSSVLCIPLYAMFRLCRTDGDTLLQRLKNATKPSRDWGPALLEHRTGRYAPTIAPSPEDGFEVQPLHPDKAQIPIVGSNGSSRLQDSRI
Assay: Glycine uptake inhibition experiment ([3H] glycine uptake in T98G cells expressing GlyT1)
Type: cell-based
Conditions: not given
Protocol: Glycine Uptake Inhibition Experiment
A glycine uptake experiment was conducted in accordance with the method published in Neuron, 8, 927-935, 1992. In the experiment, T98G cells (glioma cells) expressing human type 1 glycine transporter (GlyT1) were used. The T98G cells were seeded in a 96-well plate at 2.0×10^4 cells/well and cultured overnight in a CO2 incubator. The test substance was dissolved in a 100% DMSO solution and then dissolved in a 10 mM HEPES buffer solution (pH 7.4) containing 150 mM sodium chloride, 1 mM calcium chloride, 5 mM potassium chloride, 1 mM magnesium chloride, 10 mM glucose and 0.2% bovine serum albumin. After removing the cell culture medium, the test substance was subjected to a 10-min pretreatment. Subsequently, the test substance and [^3H] glycine (final concentration: 250 nM) were added to the cells and reaction was performed at room temperature for 15 minutes. After the end of the reaction, the extracellular fluid was aspirated with a manifold to remove excess labeled glycine present outside the cells, and then the cells were lysed with a 0.5 M aqueous sodium hydroxide solution. The glycine content in the cells was determined by measuring the radioactivity in the cell lysate with a liquid scintillation counter. Glycine uptake in the presence of 10 μM ALX5407 was defined as non-specific uptake, and the value calculated by subtracting the amount of the non-specific uptake from the total uptake in the absence of 10 μM ALX5407 was defined as specific uptake. In addition, glycine uptake inhibitory activity (IC50 value) was calculated from an inhibition curve at the concentrations of each test substance ranging from 10^−9 to 10^−5 M. It should be noted that ALX5407 is an HCl salt of N-[(3R)-3-([1,1′-biphenyl]-4-yloxy)-3-(4-fluorophenyl)propyl]-N-methylglycine.

Going from `COc1cc(CN2C(=O)C(F)(F)c3c(C(O)C(F)F)cccc32)cnc1F` (single isomer, unassigned) [Compound 273, 4-(2,2-difluoro-1-hydroxyethyl)-3,3-difluoro-1-[(6-fluoro-5-methoxypyridin-3-yl)methyl]-1,3-dihydro-2H-indol-2-one] to `COc1cc(CN2C(=O)C(F)(F)c3c(C(O)C(F)F)cccc32)ccn1` (single isomer, unassigned) [Compound 165, 4-(2,2-difluoro-1-hydroxyethyl)-3,3-difluoro-1-[(2-methoxypyridin-4-yl)methyl]-1,3-dihydro-2H-indol-2-one], the IC50 falls from 140 nM to 48 nM (2.9-fold). The second is the more potent here.

First: CC(O)c1c(F)ccc2c1C(F)(F)C(=O)N2Cc1cncc(Cl)c1 (single isomer, unassigned) [Compound 181, 1-[(5-chloropyridin-3-yl)methyl]-3,3,5-trifluoro-4-(1-hydroxyethyl)-1,3-dihydro-2H-indol-2-one]
Second: C[C@H](O)c1cccc2c1C(F)(F)C(=O)N2Cc1cncc(OC(F)F)c1 [Compound 189, 1-{[5-(difluoromethoxy)pyridin-3-yl]methyl}-3,3-difluoro-4[(1S)-1-hydroxyethyl)-1,3-dihydro-2H-indol-2-one]
The IC50 of the first is 3.9-fold higher: 310 nM for the first, 79 nM for the second.

`N#Cc1cc(Cl)cnc1CN1C(=O)C(F)(F)c2c(C(O)C(F)F)cccc21` (single isomer, unassigned) [Compound 276, 5-chloro-2-{[4-(2,2-difluoro-1-hydroxyethyl)-3,3-difluoro-2-oxo-2,3-dihydro-1H-indol-1-yl]methyl}pyridine-3-carbonitrile] and `C[C@H](O)c1cccc2c1C(F)(F)C(=O)N2Cc1ncc(F)cc1C#N` [Compound 233, 2-({3,3-difluoro-4-[(1S)-1-hydroxyethyl)-2-oxo-2,3-dihydro-1H-indol-1-yl}methyl)-5-fluoropyridine-3-carbonitrile] are within 1.5-fold of each other in IC50: 200 nM for the first, 180 nM for the second.

Compared with `C[C@H](O)c1cccc2c1C(F)(F)C(=O)N2Cc1cnc(Cl)cn1` [Compound 199, 1-[(5-chloropyrazin-2-yl)methyl]-3,3-difluoro-4-[(1S)-1-hydroxyethyl]-1,3-dihydro-2H-indol-2-one], `C[C@H](O)c1cccc2c1C(F)(F)C(=O)N2Cc1ccc(Br)nc1` [Compound 190, 1-[(6-bromopyridin-3-yl)methyl]-3,3-difluoro-4-[(1S)-1-hydroxyethyl]-1,3-dehydro-2H-indol-2-one] is 2.2-fold lower in IC50: 110 nM for the first, 51 nM for the second. The second is the more potent here.

Same assay, conditions: glycine uptake inhibition

Going from `C[C@H](O)c1cccc2c1C(F)(F)C(=O)N2Cc1ccnc(C#N)c1` [Compound 40, 4-({3,3-difluoro-4-[(1S)-1-hydroxyethyl]-2-oxo-2,3-dihydro-1H-indol-1-yl}methyl)pyridine-2-carbonitrile] to `C[C@H](O)c1cccc2c1C(F)(F)C(=O)N2Cc1cc(Br)ccn1` [Compound 123, 1-[(4-bromopyridin-2-yl)methyl]-3,3-difluoro-4-[(1S)-1-hydroxyethyl]-1,3-dihydro-2H-indol-2-one], the IC50 falls from 38 nM to 22 nM (1.7-fold).

First: C[C@H](O)c1cccc2c1C(F)(F)C(=O)N2Cc1ccc2ncoc2c1 [Compound 127, 1-(1,3-benzoxazol-6-ylmethyl)-3,3-difluoro-4-[(1S)-1-hydroxyethyl]-1,3-dihydro-2H-indol-2-one]
Second: C[C@H](O)c1cccc2c1C(F)(F)C(=O)N2Cc1cncc(F)c1 [Compound 63, 3,3-difluoro-1-[(5-fluoropyridin-3-yl)methyl]-4-[(1S)-1-hydroxyethyl]-1,3-dihydro-2H-indol-2-one]
The IC50 of the first is 2.6-fold lower: 29 nM for the first, 76 nM for the second.

Going from `C[C@@H](O)c1cccc2c1C(F)(F)C(=O)N2Cc1nc2ccccc2c(=O)n1C` [Compound 39, 2-({3,3-difluoro-4-[(1R)-1-hydroxyethyl]-2-oxo-2,3-dihydro-1H-indol-1-yl}methyl)-3-methylquinazolin-4(3H)-one] to `C[C@H](O)c1cccc2c1C(F)(F)C(=O)N2Cc1ccccn1` [Compound 60, 3,3-difluoro-4-[(1S)-1-hydroxyethyl]-1-(pyridin-2-ylmethyl)-1,3-dihydro-2H-indol-2-one], the IC50 falls from 620 nM to 230 nM (2.7-fold).

Going from `N#Cc1cccc(CN2C(=O)C(F)(F)c3c(C(O)C(F)(F)F)cccc32)n1` (single isomer, unassigned) [Compound 18, 6-{[3,3-difluoro-2-oxo-4-(2,2,2-trifluoro-1-hydroxyethyl)-2,3-dihydro-1H-indol-1-yl]methyl}pyridine-2-carbonitrile] to `O=C1N(Cc2cncc(Cl)c2)c2cccc(C(O)C(F)(F)F)c2C1(F)F` (single isomer, unassigned) [Compound 22, 1-[(5-chloropyridin-3-yl)methyl]-3,3-difluoro-4-(2,2,2-trifluoro-1-hydroxyethyl)-1,3-dihydro-2H-indol-2-one], the IC50 falls from 3300 nM to 1900 nM (1.7-fold). The second is the more potent here.

Compared with `CC(C)(O)c1cccc2c1C(F)(F)C(=O)N2Cc1cccc(Cl)n1` [Compound 12, 1-[(6-chloropyridin-2-yl)methyl]-3,3-difluoro-4-(2-hydroxypropan-2-yl)-1,3-dihydro-2H-indol-2-one], `O=C1N(Cc2cccc(Cl)n2)c2cccc(C(O)C(F)F)c2C1(F)F` (stereo not drawn) [Compound 10, 1-[(6-chloropyridin-2-yl)methyl]-4-(2,2-difluoro-1-hydroxyethyl)-3,3-difluoro-1,3-dihydro-2H-indol-2-one] is 26-fold lower in IC50: 700 nM for the first, 27 nM for the second. The second is the more potent here.

First: O=C1N(Cc2cccc(C(F)F)n2)c2cccc(C(O)C(F)F)c2C1(F)F (single isomer, unassigned) [Compound 153, 4-(2,2-difluoro-1-hydroxyethyl)-1-{[6-(difluoromethyl)pyridin-2-yl]methyl}-3,3-difluoro-1,3-dihydro-2H-indol-2-one]
Second: O=C1N(Cc2cc(Cl)ccn2)c2cccc(C(O)C(F)F)c2C1(F)F (single isomer, unassigned) [Compound 146, 1-[(4-chloropyridin-2-yl)methyl]-4-(2,2-difluoro-1-hydroxyethyl)-3,3-difluoro-1,3-dihydro-2H-indol-2-one]
The IC50 of the first is 2.1-fold higher: 130 nM for the first, 61 nM for the second.

First: C[C@H](O)c1cccc2c1C(F)(F)C(=O)N2Cc1cc(F)ccn1 [Compound 97, 3,3-difluoro-1-[(4-fluoropyridin-2-yl)methyl]-4-[(1S)-1-hydroxyethyl]-1,3-dihydro-2H-indol-2-one]
Second: COc1ccc(CN2C(=O)C(F)(F)c3c([C@H](C)O)cccc32)nc1 [Compound 106, 3,3-difluoro-4-[(1S)-1-hydroxyethyl]-1-[(5-methoxypydin-2-yl)methyl]-1,3-dihydro-2H-indol-2-one]
The IC50 of the first is 8.9-fold lower: 91 nM for the first, 810 nM for the second.

Going from `C[C@H](O)c1cccc2c1C(F)(F)C(=O)N2Cc1cncc(C(F)F)c1` [Compound 116, 1-{[5-(difluoromethyl)pyridin-3-yl]methyl}-3,3-difluoro-4-[(1S)-1-hydroxyethyl]-1,3-dihydro-2H-indol-2-one] to `CC(O)c1cccc2c1C(F)(F)C(=O)N2Cc1cncc(Cl)c1` (single isomer, unassigned) [Compound 6, 1-[(5-chloropyridin-3-yl)methyl]-3,3-difluoro-4-(1-hydroxyethyl)-1,3-dihydro-2H-indol-2-one], the IC50 rises from 110 nM to 3700 nM (34-fold). The first is the more potent here.

First: O=C1N(Cc2cncc(Cl)c2)c2ccc(F)c(C(O)C(F)(F)F)c2C1(F)F (single isomer, unassigned) [Compound 49, 1-[(5-chloropyridin-3-yl)methyl]-3,3,5-trifluoro-4-(2,2,2-trifluoro-1-hydroxyethyl)-1,3-dihydro-2H-indol-2-one]
Second: C[C@H](O)c1cccc2c1C(F)(F)C(=O)N2Cc1cncc(-n2cncn2)c1 [Compound 129]
The IC50 of the first is 4.6-fold lower: 1500 nM for the first, 6900 nM for the second.

Same assay, conditions: table section whose head prints (μm)

`COc1nc(CN2C(=O)C(F)(F)c3c(C(O)C(F)F)cccc32)ccc1F` (single isomer, unassigned) [Compound 265, 4-(2,2-difluoro-1-hydroxyethyl)-3,3-difluoro-1-[(5-fluoro-6-methoxypyridin-2-yl)methyl]-1,3-dihydro-2H-indol-2-one] showed an IC50 of 930 nM.
